Data on 8 molecules can be found in patent US20040220267A1, “Derivatives of pentacyclic nortriterpene quinone methides as compounds useful in the treatment of inflammatory, neurodegenerative, and neoplastic diseases” (priority 2003, published 2004).

Where two headings read alike, the source gives them in different places.

The test system of one data set is Hsp70. The format is cell-based.
Another data set deals with topoisomerase II. Particulars: cited from earlier work.
For a further data set, the system named is human leukemia HL-60. Conditions: cited from earlier work; for rank order of potency: apoptosis induction in HL-60 and topoisomerase II inhibition, Nagase et al. 2003.
Another data set deals with protein aggregation. As to the kind of experiment: In vitro Huntington Aggregation Assay. The format is biochemical.
The nature of data set [1]: Cellular toxicity / cytotoxicity. The format is cell-based.
A further data set deals with IL-1β. Particulars: cited from earlier work.
The next data set deals with inducible NO synthase. Conditions: cited from earlier work.
In another data set the test system is microglia. Particulars: cited from earlier work.
Data set [2] has as its system heat shock proteins (HSPs). Particulars: cited from earlier work.
The next data set deals with TNF-α. Conditions: cited from earlier work.
The test system of another data set is NF-κB activation. Conditions: cited from earlier work.
For the next data set, the system named is nitric oxide production. Conditions: cited from earlier work.
The test system of data set [3] is constitutive NO synthases. Particulars: cited from earlier work.

`COC(=O)[C@]1(C)CC[C@]2(C)CC[C@]3(C)C4=CCc5c(cc(OC(C)=O)c(OC(C)=O)c5C)[C@]4(C)CC[C@@]3(C)[C@@H]2C1` [dihydropristimerin diacetate]: the Hsp70 generation result in the data set on Hsp70 (Dose 0.1 uM) is reported as “.038”; in the data set on Hsp70 (Dose 0.3 uM), “.048”; in the data set with Hsp70 (Dose 0.5 uM), “.042”; in the data set on Hsp70 (Dose 1.0 uM), “.049”; with Hsp70 (Dose 2.0 uM), “.047”; in the data set with Hsp70 (Dose 3.0 uM), “.049”. Moreover, the values for the Hsp70 generation result in the data set on Hsp70 (Dose 6 uM) and with Hsp70 (Dose 10 uM) were “.246” and “.273”, respectively.

For the molecule `Cc1c(O)c(O)cc2c1CC=C1[C@@]2(C)CC[C@@]2(C)[C@@H]3C[C@](C)(C(=O)O)CC[C@]3(C)CC[C@]12C` [dihydrocelastrol], in the data set with topoisomerase II, the “activity in inhibiting topoisomerase II compared with celastrol and etoposide” value was “weaker activity”. For the same molecule, the “rank order of potency” value with human leukemia HL-60 is recorded as “celastrol>etoposide>dihydrocelastrol”. The “activity in inducing apoptosis compared with celastrol and etoposide” value in the data set on human leukemia HL-60 (human leukemia HL-60 model) was “weaker activity”. Moreover, the “inhibition of protein aggregation in the in vitro Huntington Aggregation assay” value (shortened to “inhibition of protein aggregation”) with protein aggregation was “potent”. Moreover, the Hsp70 generation result is given as “.051” in the data set with Hsp70 (Dose 0.1 uM); “.036” in the data set with Hsp70 (Dose 0.3 uM); “.033” in the data set with Hsp70 (Dose 0.5 uM); “.052” with Hsp70 (Dose 1.0 uM); “.049” in the data set with Hsp70 (Dose 2.0 uM); “.117” in the data set on Hsp70 (Dose 3.0 uM). The Hsp70 generation with Hsp70 (Dose 6 uM) is 3.37; in the data set on Hsp70 (Dose 10 uM), “.044”.

Consider dihydrocelastrol diacetate, for which the “cytotoxicity compared with celastrol” value in [1] is recorded as “reduced cytotoxicity”. Moreover, the “inhibition of protein aggregation” value with protein aggregation is listed as “potent”. For the same molecule, in the data set with Hsp70, the “potency compared with celastrol” value is reported as “at least equivalent to celastrol in potency”. In addition, the Hsp70 generation result is “.041” in the data set with Hsp70 (Dose 0.1 uM); “.039” with Hsp70 (Dose 0.3 uM); “.041” in the data set with Hsp70 (Dose 0.5 uM); “.071” with Hsp70 (Dose 1.0 uM); 12.3 with Hsp70 (Dose 2.0 uM); 2.61 in the data set on Hsp70 (Dose 3.0 uM). Further, the Hsp70 generation result with Hsp70 (Dose 6 uM) was “.040”; in the data set on Hsp70 (Dose 10 uM), “.096”.

Consider `CC1=C(O)C(=O)C=C2C1=CC=C1[C@@]2(C)CC[C@@]2(C)[C@@H]3C[C@](C)(C(=O)O)CC[C@]3(C)CC[C@]12C` [celastrol, reference compound], for which the “concentration inhibiting topoisomerase II” value with topoisomerase II is recorded as “sub-micromolar concentrations”. Further, the “rank order of potency” value in the data set with human leukemia HL-60 is listed as “celastrol>etoposide>dihydrocelastrol”. Moreover, the concentration inducing apoptosis entry with human leukemia HL-60 (human leukemia HL-60 model) is reported as “sub-micromolar concentrations”. Also, in the data set on IL-1β, the “inhibition of production of IL-1β” value is recorded as “inhibits”. In addition, in the data set with inducible NO synthase, the “inhibition of expression of inducible NO synthase” value is “inhibits”. In addition, the “inhibition of microglial activation” value in the data set with microglia is given as “inhibits”. The “concentration enhancing cellular HSP production” value in [2] was “sub-micromolar concentrations”. In the data set with protein aggregation, the “inhibition of protein aggregation” value was “potent inhibitor”. In addition, in the data set on TNF-α, the “inhibition of production of TNF-α” value is given as “inhibits”. Also, the IC50 was 270 nM in the data set with NF-κB activation and 230 nM in the data set with nitric oxide production. Further, the Hsp70 generation result is recorded as “.043” in the data set with Hsp70 (Dose 0.1 uM); “.046” in the data set with Hsp70 (Dose 0.3 uM); “.039” with Hsp70 (Dose 0.5 uM); “.423” in the data set on Hsp70 (Dose 1.0 uM); 15.0 with Hsp70 (Dose 2.0 uM); 4.54 in the data set on Hsp70 (Dose 3.0 uM). Further, the Hsp70 generation entry is reported as “.240” in the data set on Hsp70 (Dose 6 uM) and “.034” with Hsp70 (Dose 10 uM). Moreover, in data set [3], the “inhibition of constitutive NO synthases” value was “does not inhibit”.

In the case of `COc1cc([C@@H]2c3cc4c(cc3[C@@H](O[C@@H]3O[C@@H]5CO[C@@H](C)O[C@H]5[C@H](O)[C@H]3O)[C@H]3COC(=O)[C@H]23)OCO4)cc(OC)c1O` [etoposide], the “rank order of potency” value in the data set with human leukemia HL-60 is “celastrol>etoposide>dihydrocelastrol”.

Regarding `N=C(N)NN` [aminoguanidine], the IC50 in the data set on nitric oxide production is 16000 nM.

As for dihydropristimerin, the “inhibition of protein aggregation” value in the data set with protein aggregation is reported as “potent”. For the same molecule, the Hsp70 generation result with Hsp70 (Dose 0.1 uM) is recorded as “.050”; in the data set with Hsp70 (Dose 0.3 uM) it was “.039”; with Hsp70 (Dose 0.5 uM), “.037”; in the data set on Hsp70 (Dose 1.0 uM) it was “.043”; in the data set on Hsp70 (Dose 2.0 uM), “.042”; in the data set with Hsp70 (Dose 3.0 uM) it was “.045”. Moreover, the Hsp70 generation entry with Hsp70 (Dose 6 uM) was “.102”; in the data set on Hsp70 (Dose 10 uM), “.034”.

With `COC(=O)[C@]1(C)CC[C@]2(C)CC[C@]3(C)C4=CC=C5C(=CC(=O)C(O)=C5C)[C@]4(C)CC[C@@]3(C)[C@@H]2C1` [pristimerin, reference compound], the Hsp70 generation result in the data set on Hsp70 (Dose 0.1 uM) is on record as “.30”; in the data set on Hsp70 (Dose 0.3 uM), “.056”; in the data set with Hsp70 (Dose 0.5 uM) it was “.331”; in the data set with Hsp70 (Dose 1.0 uM), 2.84; in the data set on Hsp70 (Dose 2.0 uM) it was “.094”; in the data set with Hsp70 (Dose 3.0 uM) it was “.035”. The Hsp70 generation result was “.033” with Hsp70 (Dose 6 uM) and 1.25 with Hsp70 (Dose 10 uM).

A word on the IC50: it is the midpoint of a concentration-inhibition curve.
